In brackets after ≈: the same amount, converted by molar mass. Structures can show the parent of a compound that is named as a salt. Where two headings read alike, the source gives them in different places.

Series [1] can be described thus: Solubility measurements by gravimetric method in solvents at 23° C. and 50° C. Format: physicochemical. The conditions noted are these: non-crystalline freebase; for solubility at 2 days: organic solvent or mixture, thermodynamic from solid, read-out: Solubility. The protocol: Solubility measurements were done by gravimetric method in 20 different solvents at two temperatures (23° C. and 50° C.). About 20-30 mg of Form A, the synthesis of which is described below, was weighed and 0.75 mL solvent was added to form a slurry. The slurry was then stirred for two days at the specified temperature. The vial was centrifuged and the supernatant was collected for solubility measurement through gravimetric method. The saturated supernatant was transferred into pre-weighed 2 mL HPLC vials and weighed again (vial+liquid). The uncapped vial was then left on a 50° C. hot plate to slowly evaporate the solvent overnight. The vials were then left in the oven at 50° C. and under vacuum to remove the residual solvent so that only the dissolved solid remained. The vial was then weighed (vial+solid). From these three weights; vial, vial+liquid and vial+solid; the weight of dissolved solid and the solvent were calculated. Then using solvent density the solubility was calculated as mg solid/mL of solvent.
20-30 mg of Form A was weighed into 2 mL vial and 500 μL MeOH solvent system as outlined in the table was added. If dissolved, more solids were added to form the slurry. The slurries were then stirred for two days. The vials were centrifuged and the supernatant was collected for solubility measurement through gravimetric method by evaporation at 50° C. XRPD analysis was conducted on the solid after filtration of the slurries.
For the sake of comparison, the solubility of Compound 1, i.e., the non-crystalline freebase, was also measured in two solvent systems to see the effect of water.

A short description of series [2]: Pharmacokinetic evaluation after single PO suspension dose. It counts as in vivo, Sprague-Dawley rat. The conditions noted are these: for AUC 0-last / Cmax: PO 200 mg/kg (free base equivalent), suspension in 0.5% methyl-cellulose, male Sprague-Dawley rats, n=6, plasma, 200 mg/kg; for AUC fold higher compared to crystalline free-base of Compound 1 / Cmax fold higher compared to crystalline free-base of Compound 1: PO suspension 200 mg/kg, fasted male Sprague-Dawley rats. The protocol: Single dose in suspension using Crystalline Form A micronized and unmicronized, and crystalline free base of Compound 1 were administered to male Sprague-Dawley rat at 200 mg/kg. Blood samples were collected in the presence of K2EDTA, and were centrifuged to obtain plasma. The plasma was then analyzed for these compounds by LC/MS.
All animals involved in the dosing schedule were weighted and assigned numbers. All suspension formulations were freshly made prior use. Each solution was prepared at 40 mg/mL in 0.5% methyl-cellulose solution in water. The tubes were vortex for 2 min and sonicate for 30 min to achieve a white homogenous suspension.
All animals (n=6/group) were dosed orally in a volume of 5 mL/kg. Following dosing, each rat was bled at each of the designated time points. Blood samples were collected from the tail vain. Blood aliquots (150 μl) were collected in tubes coated with K2EDTA, mixed gently then kept on ice and centrifuged at 2,000 g for 5 minutes at 4° C., within 15 min of collection. The plasma layer was collected and maintained frozen at −70° C. until further processing.
Bioanalytical quantitation using HPLC/triple quadruple mass spectrometry (HPLC-MS) was performed. Plasma concentrations and T½ were calculated and reported.
A 1 mg/mL standard solution in DMSO:methanol (20:80, v/v) was diluted in 50 fold and subsequently serial diluted in 50% methanol water. Aliquots (10 μl) of the serial dilutions were mixed with 190 ul of control plasma for use as a standard curve. Plasma samples (50 μl) and standard samples (non-diluted) were diluted 10× with ice cold acetonitrile containing 40 ng/ml dexamethasone as internal standard. Acetonitrile precipitated samples and standards were vortexed at 5 g for 2 min (IKA vortex), then centrifuged at 5000 g for 10 min.
For 10-fold dilution standard samples: an aliquot of 5 μL sample was added with 45 μL control plasma to obtain the diluted samples. If a 50-fold dilution standard sample was required: an aliquot of 10 μL 10-fold diluted sample was added with 40 μL blank plasma to obtain the final diluted samples. Then, the exaction procedure for diluted samples was same as those for non-diluted samples.
Samples and standards (10 μl) were injected into the LC-MS system, as described below. Concentrations of dose solutions were reported in mg/mL.
LC: 7.5 μl of each sample and standard were injected onto a Waters BEH C18 (2.1×50 mm, 1.7 μm, maintained at 60° C.) column at 0.6 mL/min by an UPLC. The column was equilibrated at 10% acetonitrile. Compounds were eluted with a gradient to 95% acetonitrile. All mobile phase contained 0.025% (v/v) formic acid with 1 mM ammonium acetate.
MS: Column eluent was analyzed by electrospray ionization into a triple quadruple mass spectrometer system. Eluent composition was analyzed for ion pair specifics to the internal standard and the analyte respectively.
Experimental samples were compared with standard curve samples to determine compound concentrations. Average compound concentrations (in ng/mL±standard deviation) were reported for each time-point. […] PK analysis was performed in Phoenix Winnonlin; Cmax were determined as the maximum average concentration observed at a given point, the area under the curve (AUC) was reported for t0 to tlast ours.

A short description of series [3]: Solubility in phosphate buffer pH7.4. Format: physicochemical.
Series [4] is described as follows: Dynamic Vapor Sorption (DVS). It counts as physicochemical. Conditions: hemisulfate salt; for moisture picked up in DVS: 2% to 95% relative humidity, temperature not stated; for XRPD after DVS: Form A: DVS at 25° C. and 40° C. The protocol: Dynamic Vapor Sorption (DVS) was done using a DVS Intrinsic 1. The sample is loaded into a sample pan and suspended from a microbalance. A typical sample mass for DVS measurement is 25 mg. Nitrogen gas bubbled through distilled water provides the desired relative humidity. A typical measurement comprises the steps: • 1. Equilibrate at 50% RH • 2. 50% to 2%. (50%, 40%, 30%, 20%, 10% and 2%) • a. Hold minimum of 5 mins and maximum of 60 minutes at each humidity. The pass criteria is less than 0.002% change • 3. 2% to 95% (2%, 10%, 20%, 30%, 40%, 50%, 60%, 70%, 80%, 90%, 95%) • b. Hold minimum of 5 mins and maximum of 60 minutes at each humidity. The pass criteria is less than 0.002% change • 4. 95% to 2% (95%, 80%, 70%, 60%, 50%, 40%, 30%, 20%, 10%, 2%) • c. Hold minimum of 5 mins and maximum of 60 minutes at each humidity. The pass criteria is less than 0.002% change • 5. 2% to 50% (2%, 10%, 20%, 30%, 40%, 50%) • d. Hold minimum of 5 mins and maximum of 60 minutes at each humidity. The pass criteria is less than 0.002% change
(§1) The water content by Karl Fisher was about 5.3%. […] A DVS isotherm taken at 40° C. was essentially the same as the one at 25° C. […] Humidity test was conducted on Form A with exposure to 11%, 48%, and 75% relative humidity at 40° C. for 2 weeks followed by XRPD analysis. […] Crystallographic data for Form A is as follows:
Form B tends to hold substantial amount of solvent.
(§2) Form D was determined to be anhydrous with a melting peak at 239° C. See e.g., FIG. 9. DVS of Pattern D was performed and solid picked up about 2% moisture from 2% to 95% relative humidity.

A short description of series [5]: Solubility in water and simulated fluids at 37° C. (slurry, HPLC; XRPD of residual solid). It counts as physicochemical. The conditions noted are these: values based on hemi-sulfate sesqui-hydrate salt, hemisulfate salt. The protocol:
Solubility of Patterns A, B and D were measured in water. The solids were slurried in the fluids for two days and at 37° C. The supernatant was syringe filtered and used for HPLC analysis. For Patterns A and D the solubility measurement was repeated and the sample was taken after 1 hr slurry. A calibration curve was developed using Pattern A. This was not assay corrected and therefore the solubility values are based on the hemi-sulfate, sesqui-hydrate salt.
Both Patterns B and D converted to Pattern A after two days slurry. Pattern D also converted to Pattern A within 1 hour slurry in Fasted state simulated gastric fluid (FaSSGF) or water. […] This could be because of the conversion of Patterns B and D to Pattern A. The solubility data and the resulting XRPD Pattern after the measurement are reported in Table 21.

A short description of series [6]: Humidity / desiccant exposure test followed by XRPD analysis. It counts as physicochemical. The conditions noted are these: one week exposure to 75% relative humidity at 40° C. The protocol:
FIG. 5 (i) depicts X-ray powder diffraction pattern (XRPD) overlay for crystalline hemisulfate salt Form A and after exposure to 11%, 48%, and 75% relative humidity and 40° C. for two weeks. […] FIG. 5 (ii) depicts XRPD overlay for crystalline hemisulfate salt Form A and after exposure to phosphorus pentoxide (P2O5) granules at room temperature and 50° C. for one week, as well as ambient temperature in a vial for 24 hrs.
as §1, §2

For orientation: solubility means the concentration that dissolves in the medium under given conditions. In the case of `O=C(c1ccc(NS(=O)(=O)c2cccc3cccnc23)cc1)N1CCN(CC2CC2)CC1` [Compound 1, N-(4-(4-(cyclopropylmethyl)piperazine-1-carbonyl)phenyl)quinoline-8-sulfonamide], the solubility at 2 days in series [1] (MeOAc:MeOH (1:1) and 2.5 vol % water, 23 °C, MeOAc:MeOH (1:1) and 2.5 vol % water, 23° C.) stood at 15 mg/mL (≈ 33.3 mM); in series [1] (MeOAc:MeOH (1:1) and 2.5 vol % water, 50 °C, MeOAc:MeOH (1:1) and 2.5 vol % water, 50° C.), 36 mg/mL (≈ 79.9 mM); in series [1] (MeOAc:MeOH (1:1), 23 °C, MeOAc:MeOH (1:1), 23° C.) it was 15 mg/mL (≈ 33.3 mM); in series [1] (MeOAc:MeOH (1:1), 50 °C, MeOAc:MeOH (1:1), 50° C.), 34 mg/mL (≈ 75.5 mM). For the same molecule, in series [1] (MeOAc:MeOH (1:1)), the “impact of 2.5 vol % water on solubility” value is given as “did not have any impact”.

The Cmax is the peak of the concentration-time curve. For `O=C(c1ccc(NS(=O)(=O)c2cccc3cccnc23)cc1)N1CCN(CC2CC2)CC1` [Crystalline Form A (unmicronized), 1-(cyclopropylmethyl)-4-(4-(quinoline-8-sulfonamido)benzoyl)piperazin-1-ium hemisulfate sesquihydrate], in series [2] (hemisulfate sesquihydrate), the AUC 0-last stood at 356 ± 82.9 µg·h/mL, the highest concentration (Cmax) amounted to 29800 ± 5300 ng/mL, the “AUC fold higher compared to crystalline free-base of Compound 1” value is on record as 2.7 fold and the “Cmax fold higher compared to crystalline free-base of Compound 1” value turned out to be 1.6 fold. Besides, the “solubility compared to crystalline free-base of Compound 1” value in series [3] is listed as “more soluble”.

For `O=C(c1ccc(NS(=O)(=O)c2cccc3cccnc23)cc1)N1CCN(CC2CC2)CC1` [Form B, N-(4-(4-(cyclopropylmethyl)piperazine-1-carbonyl)phenyl)quinoline-8-sulfonamide hemisulfate salt], the “moisture picked up in DVS” value in series [4] is “about 14%”. Further, the “XRPD after DVS” value in series [4] was “converted to a different Form K”. Besides, the Solubility in series [5] (FaSSGF, slurry time 2 days, listed as B) is reported as 6.53 mg Solid/mL solvent; in series [5] (FaSSIF, slurry time 2 days, listed as B), 0.20 mg Solid/mL solvent; in series [5] (Water, slurry time 2 days, listed as B) it was 3.02 mg Solid/mL solvent.

In the case of `O=C(c1ccc(NS(=O)(=O)c2cccc3cccnc23)cc1)N1CCN(CC2CC2)CC1` [Form D, N-(4-(4-(cyclopropylmethyl)piperazine-1-carbonyl)phenyl)quinoline-8-sulfonamide hemisulfate salt], the “form after humidity exposure” value in series [6] is given as “did not change the form”. For the same molecule, the “moisture picked up in DVS” value in series [4] (listed as Pattern D) was “about 2%”. Besides, the “XRPD after DVS” value in series [4] (listed as Pattern D) is on record as “remained unchanged”. The Solubility in series [5] (FaSSGF, slurry time 1 hr) is 5.43 mg Solid/mL solvent; in series [5] (FaSSGF, slurry time 2 days, listed as D), 5.94 mg Solid/mL solvent; in series [5] (FaSSIF, slurry time 2 days, listed as D) it was 3.49 mg Solid/mL solvent; in series [5] (Water, slurry time 1 hr) it was 2.62 mg Solid/mL solvent; in series [5] (Water, slurry time 2 days, listed as D) it was 2.71 mg Solid/mL solvent.

For the molecule `O=C(c1ccc(NS(=O)(=O)c2cccc3cccnc23)cc1)N1CCN(CC2CC2)CC1` [Crystalline Form A (micronized), 1-(cyclopropylmethyl)-4-(4-(quinoline-8-sulfonamido)benzoyl)piperazin-1-ium hemisulfate sesquihydrate], in series [2] (hemisulfate sesquihydrate), the AUC 0-last came to 478 ± 87.9 µg·h/mL, the Cmax was determined as 36700 ± 6800 ng/mL, the “AUC fold higher compared to crystalline free-base of Compound 1” value is reported as 3.8 fold and the “Cmax fold higher compared to crystalline free-base of Compound 1” value came to 2 fold. Also, the “solubility compared to crystalline free-base of Compound 1” value in series [3] is given as “more soluble”.

With `O=C(c1ccc(NS(=O)(=O)c2cccc3cccnc23)cc1)N1CCN(CC2CC2)CC1` [Crystalline free-base of Compound 1, N-(4-(4-(cyclopropylmethyl)piperazine-1-carbonyl)phenyl)quinoline-8-sulfonamide], in series [2], the AUC 0-last was 125 ± 85.8 µg·h/mL and the Cmax was 17900 ± 3600 ng/mL.

Values taken from patent US11254652B2, “Crystalline forms of N-(4-(4-(cyclopropymethyl)piperazine-1-carbonyl)phenyl)quinoline-8-sulfonamide” (Agios Pharmaceuticals, Inc., priority 2017, dated 2022).
